Experimental findings from PubChem BioAssay AID330 (DTP/NCI, 2004) are described below.

The assay concerns P388 leukemia ip, CD2F1 mice, survival T/C. In words: NCI In Vivo Anticancer Drug Screen. Data for tumor model P388 Leukemia (intraperitoneal) in CD2F1 (CDF1) mice. The note with it: endpoint: median survival time, higher = longer survival. A digest of the protocol:
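Mice carrying the transplanted tumor received test compound or vehicle. Survival was recorded in each group, and the value is the treated-group measurement divided by that of the vehicle-treated control group.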

[1] abbreviates: dose: 50.0 mg/kg/injection, schedule: Q01DX001 (ip), vehicle: Klucel (hydroxypropylcellulose) (HPC).
[2] abbreviates: dose: 50.0 mg/kg/injection, schedule: Q01DX009 (ip), vehicle: saline with Tween-80.
The mark [3] stands for this setting: dose: 100.0 mg/kg/injection, schedule: Q01DX009 (ip), vehicle: saline with Tween-80.
The mark [4] stands for this setting: dose: 200.0 mg/kg/injection, schedule: Q01DX009 (ip), vehicle: saline with Tween-80.
The mark [5] stands for this setting: dose: 25.0 mg/kg/injection, schedule: Q01DX005 (ip), vehicle: Klucel (hydroxypropylcellulose) (HPC).
[6] abbreviates: dose: 50.0 mg/kg/injection, schedule: Q01DX009 (ip), vehicle: other.
Setting [7] is: dose: 100.0 mg/kg/injection, schedule: Q01DX009 (ip), vehicle: other.
Setting [8] is: dose: 200.0 mg/kg/injection, schedule: Q01DX009 (ip), vehicle: other.

The structures appear in SMILES notation. “And” between values parts separate entries of the source, which are not always exact repeats. Identical values can stand only once. Toxic doses and inconclusive results are not listed.

Regarding `O=c1oc2cccc(O)c2s1`, the T/C was 97 % of control (dose: 12.5 mg/kg/injection, schedule: Q01DX001 (ip), vehicle: saline); 99 % of control (dose: 25.0 mg/kg/injection, schedule: Q01DX001 (ip), vehicle: saline); 106 % of control under setting [1]; 98 % of control (dose: 50.0 mg/kg/injection, schedule: Q01DX001 (ip), vehicle: saline).

With `O=C(Nn1c(=S)[nH]c2ccccc2c1=O)c1ccc([N+](=O)[O-])cc1`, the T/C reads like this: (dose: 60.0 mg/kg/injection, schedule: Q01DX005 (ip), vehicle: Klucel + Tween-80) 93 % of control; (dose: 120.0 mg/kg/injection, schedule: Q01DX005 (ip), vehicle: Klucel + Tween-80) 87 % of control.

As to `Cl/C(=N\Nc1ccccc1)c1ccccc1`, the T/C (dose: 3.13 mg/kg/injection, schedule: Q01DX009 (ip), vehicle: Klucel (hydroxypropylcellulose) (HPC)) was 100 % of control; the T/C (dose: 6.25 mg/kg/injection, schedule: Q01DX009 (ip), vehicle: Klucel (hydroxypropylcellulose) (HPC)) is 106 % of control; the T/C (dose: 7.5 mg/kg/injection, schedule: Q01DX001 (ip), vehicle: saline sonified) was 109 % of control; the T/C (dose: 12.5 mg/kg/injection, schedule: Q01DX009 (ip), vehicle: Klucel (hydroxypropylcellulose) (HPC)) is 104 % of control; the T/C (dose: 15.0 mg/kg/injection, schedule: Q01DX001 (ip), vehicle: saline sonified) is 109 % of control; the T/C (dose: 30.0 mg/kg/injection, schedule: Q01DX001 (ip), vehicle: saline sonified) was 109 % of control.

On to `CC1=C(C)CC2C(=O)c3c(c(O)c4ccccc4c3Cl)C(=O)C2C1` (stereo unspecified), for which the T/C is 90 % of control under setting [1]; 89 % of control (dose: 100.0 mg/kg/injection, schedule: Q01DX001 (ip), vehicle: Klucel (hydroxypropylcellulose) (HPC)); 86 % of control and 90 % of control (dose: 200.0 mg/kg/injection, schedule: Q01DX001 (ip), vehicle: Klucel (hydroxypropylcellulose) (HPC)); 92 % of control (dose: 400.0 mg/kg/injection, schedule: Q01DX001 (ip), vehicle: Klucel (hydroxypropylcellulose) (HPC)).

`Cc1nn(C(=S)S)c(C)c1N=Nc1ccccc1[N+](=O)[O-]`: the T/C was 103 % of control (dose: 100.0 mg/kg/injection, schedule: Q04DX002 (ip), vehicle: Klucel (hydroxypropylcellulose) (HPC)); 94 % of control (dose: 200.0 mg/kg/injection, schedule: Q04DX002 (ip), vehicle: Klucel (hydroxypropylcellulose) (HPC)); 107 % of control (dose: 400.0 mg/kg/injection, schedule: Q04DX002 (ip), vehicle: Klucel (hydroxypropylcellulose) (HPC)).

As for `O=C1CC(c2ccccc2)NN1` (stereo unspecified), the T/C runs as follows: (dose: 50.0 mg/kg/injection, schedule: Q01DX009 (ip), vehicle: saline) 103 % of control; (dose: 100.0 mg/kg/injection, schedule: Q01DX009 (ip), vehicle: saline) 97 % of control.

Turning to `CCOCC1COc2c(cc3[nH]cc(C(=O)OCC)c(=O)c3c2Cl)O1` (stereo unspecified), the T/C by setting is: under setting [2], 111 % of control; under setting [3], 110 % of control; under setting [4], 101 % of control.

Regarding `COc1cc2c(c(OC)c1O)-c1ccc(OC)c(=O)cc1[C@@H](NC(C)=O)CC2`, for the setting “dose: 10.0 mg/kg/injection, schedule: Q01DX009 (ip), vehicle: Klucel (hydroxypropylcellulose) (HPC)”, the T/C was 150 % of control and 175 % of control.

On to `O=C1CC2C(O)OC(O)C(C1)N2C(=O)OCC(Cl)(Cl)Cl` (stereo unspecified), for which the T/C reads like this: (dose: 6.25 mg/kg/injection, schedule: Q01DX005 (ip), vehicle: Klucel (hydroxypropylcellulose) (HPC)) 106 % of control; (dose: 12.5 mg/kg/injection, schedule: Q01DX005 (ip), vehicle: Klucel (hydroxypropylcellulose) (HPC)) 106 % of control; under setting [5], 114 % of control.

Consider `O=C(c1cc2c(cc1Br)OCO2)N1CCc2ccccc21`, for which the T/C was 93 % of control under setting [6], 105 % of control under setting [7] and 109 % of control under setting [8].

For the compound `CCN(CC)c1ccc(C(NCC2CCCCO2)C(Cl)(Cl)Cl)cc1` (stereo unspecified), the T/C (dose: 50.0 mg/kg/injection, schedule: Q01DX005 (ip), vehicle: saline) is 117 % of control; the T/C (dose: 100.0 mg/kg/injection, schedule: Q01DX005 (ip), vehicle: saline) was 102 % of control; the T/C (dose: 200.0 mg/kg/injection, schedule: Q01DX005 (ip), vehicle: saline) is 100 % of control.

For `COC(=O)c1nc(OC)nc(OC)c1C#CCOC1CCCCO1` (stereo unspecified), the T/C reads like this: (dose: 12.5 mg/kg/injection, schedule: Q01DX009 (ip), vehicle: distilled water + Tween-80) 92 % of control; (dose: 25.0 mg/kg/injection, schedule: Q01DX009 (ip), vehicle: distilled water + Tween-80) 108 % of control; (dose: 50.0 mg/kg/injection, schedule: Q01DX009 (ip), vehicle: distilled water + Tween-80) 94 % of control; (dose: 100.0 mg/kg/injection, schedule: Q01DX009 (ip), vehicle: distilled water + Tween-80) 94 % of control.

As for `Cn1cnc2c(N(CCO)CCO)ncnc21`, the T/C reads like this: (dose: 50.0 mg/kg/injection, schedule: Q01DX005 (ip), vehicle: distilled water + Tween-80 + alcohol) 109 % of control; (dose: 100.0 mg/kg/injection, schedule: Q01DX005 (ip), vehicle: distilled water + Tween-80 + alcohol) 105 % of control; (dose: 200.0 mg/kg/injection, schedule: Q01DX005 (ip), vehicle: distilled water + Tween-80 + alcohol) 106 % of control.

In the case of `CCN(CC)CCNc1ccc(COC(=O)NC)c2oc3ccc(OS(=O)(=O)c4ccc(C)cc4)cc3c(=O)c12`, the T/C is, setting by setting: (dose: 25.0 mg/kg/injection, schedule: Q01DX005 (ip), vehicle: water) 89 % of control; (dose: 50.0 mg/kg/injection, schedule: Q01DX005 (ip), vehicle: water) 93 % of control; (dose: 100.0 mg/kg/injection, schedule: Q01DX005 (ip), vehicle: water) 90 % of control; (dose: 200.0 mg/kg/injection, schedule: Q01DX005 (ip), vehicle: water) 93 % of control.

`COc1cccc2c1C(=O)c1c(O)c3c(c(O)c1C2=O)C[C@@](O)(C(=O)CO)C[C@@H]3OC1CC(NC(C)=O)C(O)C(C)O1` (stereo partly specified): the T/C is 96 % of control (dose: 0.2 mg/kg/injection, schedule: Q01DX009 (ip), vehicle: water); 107 % of control (dose: 0.39 mg/kg/injection, schedule: Q01DX009 (ip), vehicle: water); 116 % of control (dose: 0.78 mg/kg/injection, schedule: Q01DX009 (ip), vehicle: water); 122 % of control (dose: 1.56 mg/kg/injection, schedule: Q01DX009 (ip), vehicle: water); 120 % of control (dose: 3.13 mg/kg/injection, schedule: Q01DX009 (ip), vehicle: water); 156 % of control (dose: 25.0 mg/kg/injection, schedule: Q01DX009 (ip), vehicle: other). In addition, the T/C is 195 % of control under setting [6]; 172 % of control (dose: 50.0 mg/kg/injection, schedule: Q01DX009 (ip), vehicle: water); 201 % of control under setting [7]; 192 % of control under setting [8].

In the case of `COc1ccc2c(c1)C1(C)CCN(C)CC(C1)C2O` (stereo unspecified), the T/C runs as follows: under setting [2], 96 % of control and 104 % of control; under setting [3], 91 % of control and 87 % of control; under setting [4], 117 % of control.

Take `CN(C)CCOC1OCN(C)CC1(C)C` (stereo unspecified): the T/C runs as follows: under setting [2], 104 % of control; under setting [3], 111 % of control; under setting [4], 110 % of control.

`CCOC(=O)C(CCCOC1CCCCO1)(C(=O)CC)c1ccccc1` (stereo unspecified) (tested in a mixture with another compound): the T/C was 111 % of control (dose: 50.0 mg/kg/injection, schedule: Q01DX009 (ip), vehicle: acetone); 103 % of control (dose: 100.0 mg/kg/injection, schedule: Q01DX009 (ip), vehicle: acetone); 107 % of control (dose: 200.0 mg/kg/injection, schedule: Q01DX009 (ip), vehicle: acetone).

Consider `CCOC(=O)c1ccc2c(c1)nc(-c1ccccn1)n2CCc1ccncc1`, for which the T/C by setting is: under setting [5], 103 % of control; (dose: 50.0 mg/kg/injection, schedule: Q01DX005 (ip), vehicle: Klucel (hydroxypropylcellulose) (HPC)) 102 % of control; (dose: 100.0 mg/kg/injection, schedule: Q01DX005 (ip), vehicle: Klucel (hydroxypropylcellulose) (HPC)) 102 % of control; (dose: 200.0 mg/kg/injection, schedule: Q01DX005 (ip), vehicle: Klucel (hydroxypropylcellulose) (HPC)) 94 % of control.

For `O=C(CC1(O)C(=O)Nc2ccccc21)c1ccccn1` (stereo unspecified), the T/C is 102 % of control (dose: 50.0 mg/kg/injection, schedule: Q01DX009 (ip), vehicle: Klucel (hydroxypropylcellulose) (HPC)); 97 % of control (dose: 100.0 mg/kg/injection, schedule: Q01DX009 (ip), vehicle: Klucel (hydroxypropylcellulose) (HPC)); 100 % of control (dose: 200.0 mg/kg/injection, schedule: Q01DX009 (ip), vehicle: Klucel (hydroxypropylcellulose) (HPC)).
